# Legend:
# [1] = NO scavenging assay (sodium nitroprusside / Griess reagent); conditions: for NO IC50: mean ± SEM of three experiments, 90 min, 546 nm
# Experimental: The NO scavenging activity of all synthesized compounds was measured as previously described by Ho et al.[50] Briefly, 50 µL of different concentrations of the tested compounds (12.5, 25, 50,100, and 200 µg/mL) were pipetted into a 96-well plate. Then, 50 µL of 10-mM sodium nitroprussides dissolved in phosphate-buffered saline PBS (pH 7.4) were added to each well and the plate was incubated for 90 min at room temperature. Next, an equal volume of Griess reagent (1% of sulphanilamide and 0.1% of naphthyl ethylene diamine in 2.5% […]) was added to each well to measure the nitrite content. The absorbance of the formed pink-coloured chromophore was measured at λ 546 nm. DMSO and ascorbic acid were used as the negative and positive control, respectively. All tests were performed in triplicate. The percentage of NO scavenging activity was calculated according to the following equation: % of NO scavenging=[(Acontrol−Asample)/Acontrol]×100 where Acontrol is the absorbance of the control reaction (with all reagents except the test compound), and Asample is the absorbance of the test sample.
# [2] = DPPH radical scavenging assay; conditions: mean ± SEM of three experiments; 30 min, 517 nm
# Experimental: The DPPH scavenging activity of all synthesized compounds was measured as previously described by Nahar et al.[48] with some modifications. Briefly, 100 µL of different concentrations of the tested compounds (12.5, 25, 50, 100, and 200 µg/mL) were pipetted into a 96-well plate. Then, 100 µL of 100-µM DPPH methanolic solution were added to each well and the plate was incubated protected from light at room temperature for 30 min. The absorbance of the solution was measured at λ517 nm.[49] Ascorbic acid was used as the positive control while DMSO was the negative control. The percentage of DPPH scavenging activity was calculated according to the following equation: % of DPPH scavenging=[(Acontrol–Asample)/Acontrol] ×100, where Acontrol is the absorbance of the control reaction (with all reagents except the test compound), and Asample is the absorbance of the test sample. […] All tests were performed in triplicates.
# [3] = Superoxide scavenging assay (pyrogallol autoxidation); conditions: mean ± SEM of three experiments; pyrogallol autoxidation, 325 nm
# Experimental: The improved pyrogallol autoxidation method was used to determine O2^−. RSA of all synthesized compounds as previously described. Briefly, 50 µL of test compounds (12.5, 25, 50,100, and 200 µg/mL) was added to 2900 µl of […] Tris HCl buffer (0.05 M, pH 7.4) containing 1-mM Na2EDTA. Next, 50 µL of 60-mM pyrogallol in1mM HCl had been thoroughly mixed with the mixture. The absorbance of the reaction mixture was measured at A325 nm every 30 s for 5 min. O2^− RSA was expressed by the oxidation degree of a test group in comparison to that of the control. The absorbance at 325 nm was measured against the Tris-HCl buffer every 30 s for 5 min. The percentage of scavenging effect was calculated using the following equation: O2^− radical scavenging %=[(ΔA325, control/T)−(ΔA325nm, sample/T)/ΔA325nm, control/T]×100 where ΔA325 nm, control is the increase in A325 nm of the reaction mixture without the sample and ΔA325 nm, sample is that for the mixture with the sample; T=5 min. The experiments were performed in triplicate.
# Soybean 15-LOX enzyme = target: T1, Soybean 15-LOX enzyme (Glycine max, UniProt P08170); assay: In vitro lipoxygenase inhibition (Cayman lipoxygenase inhibitor screening assay kit); type: biochemical; conditions: mean ± SEM of three experiments; substrate arachidonic acid
# T1 construct: purchased Cayman Chemical 760700
# T1 sequence (P08170 1-839): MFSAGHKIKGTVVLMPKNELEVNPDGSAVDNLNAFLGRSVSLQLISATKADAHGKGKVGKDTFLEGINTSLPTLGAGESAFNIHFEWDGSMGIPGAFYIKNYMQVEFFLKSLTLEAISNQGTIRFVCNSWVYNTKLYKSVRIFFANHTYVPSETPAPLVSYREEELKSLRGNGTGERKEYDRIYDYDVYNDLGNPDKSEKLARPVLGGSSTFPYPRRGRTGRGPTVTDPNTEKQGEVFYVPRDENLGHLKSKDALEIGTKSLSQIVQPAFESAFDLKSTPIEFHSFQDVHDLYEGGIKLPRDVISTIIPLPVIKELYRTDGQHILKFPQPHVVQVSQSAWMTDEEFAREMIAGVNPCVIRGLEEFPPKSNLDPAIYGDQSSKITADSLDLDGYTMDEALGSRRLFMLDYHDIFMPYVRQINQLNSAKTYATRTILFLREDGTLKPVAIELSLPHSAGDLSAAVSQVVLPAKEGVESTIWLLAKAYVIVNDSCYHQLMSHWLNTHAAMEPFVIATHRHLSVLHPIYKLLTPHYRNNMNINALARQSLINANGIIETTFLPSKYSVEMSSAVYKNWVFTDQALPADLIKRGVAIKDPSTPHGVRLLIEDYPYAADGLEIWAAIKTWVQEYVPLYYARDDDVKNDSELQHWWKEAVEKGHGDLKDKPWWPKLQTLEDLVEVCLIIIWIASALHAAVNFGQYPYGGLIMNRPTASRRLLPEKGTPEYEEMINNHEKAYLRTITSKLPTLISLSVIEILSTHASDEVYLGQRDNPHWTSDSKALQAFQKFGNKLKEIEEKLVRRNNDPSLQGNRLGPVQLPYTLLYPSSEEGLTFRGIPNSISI
# Experimental: The assay was performed using Cayman’s lipoxygenase inhibitor screening assay kit (Catalog No. 760700, Cayman Chemical, USA) according to the manufacturer’s instructions. Briefly, 90 µL of 15-LOX was pipetted into a 96-well plate. Next, 10 µL of test compound at concentrations (2.5, 5.0 and 10 µM) dissolved in DMSO were added to each well. The reaction was initiated by adding 10 µL substrate (AA) and the plate was placed on a shaker for at least 5 minutes. Finally, 100 µL of chromogen (prepared according to manufacturer’s instructions) was added to each well to stop enzyme catalysis and develop the reaction. 100 µL of Assay buffer (0.1 M Tris-HCl, pH7.4) was used in blank wells. […] The absorbance of the solution was measured at λ 490–500 nm. The percentage inhibition was calculated according to the following equation: % inhibition =[(IA−Ainhibitor sample)/IA]×100 where (IA) is the 100% initial activity and (Ainhibitor sample) is the absorbance of the test sample. Dose–response curve was plotted between % inhibition and the drug concentration. The non-linear dose–response curve was used for calculating drug concentration showing 50% enzyme inhibition.
Structure (SMILES),NO IC50 [1] [µg/mL],DPPH IC50 [2] [µg/mL],Superoxide IC50 [3] [µg/mL],melting point [°C],IC50 (Soybean 15-LOX enzyme) [µM],NO scavenging potency relative to ascorbic acid ([1]; folds that of ascorbic acid) [folds]
"COc1ccc(C(=O)/C=C/c2cn(-c3ccccc3)nc2-c2ccc3ccccc3c2)cc1 [Compound 2b, 1-(4-Methoxyphenyl)-3-(3-naphthalen-2-yl-1-phenyl-1H-pyrazole-4-yl)-propenone]",78.25 ± 1.25,182.17 ± 0.99,>200,187 to 188,3.13 ± 0.09,
"Cc1ccc(C(=O)/C=C/c2cn(-c3ccccc3)nc2-c2ccc3ccccc3c2)cc1 [Compound 2c, 3-(3-Naphthalen-2-yl-1-phenyl-1H-pyrazol-4-yl)-1-p-tolyl propenone]",>200,192.70 ± 1.63,>200,146 to 147,2.8 ± 0.06,
"O=C(/C=C/c1cn(-c2ccccc2)nc1-c1ccc2ccccc2c1)c1ccc(Cl)c(Cl)c1 [Compound 2e, 1-(3,4-Dichlorophenyl)-3-(3-naphthalen-2-yl-1-phenyl-1H-pyrazol-4-yl)propenone]",11.04 ± 0.72,118.99 ± 1.78,>200,168 to 169,4.63 ± 0.09,3.4
"COc1ccc(C2=NNC(c3cn(-c4ccccc4)nc3-c3ccc4ccccc4c3)C2)cc1 (stereo not shown) [Compound 3b, 5-(4-Methoxyphenyl)-3′-naphthalen-2-yl-1′-phenyl-3,4-dihydro-2H,1’H-[3,4′] bipyrazole]",147.95 ± 1.32,11.70 ± 0.29,118.65 ± 1.03,177 to 178,4.6 ± 0.06,
"Cc1ccc(C2=NNC(c3cn(-c4ccccc4)nc3-c3ccc4ccccc4c3)C2)cc1 (stereo not shown) [Compound 3c, 3’-Naphthalen-2-yl-1’-phenyl-5-p-tolyl-3,4-dihydro-2H, 1’H -[3,4’]bipyrazole]",>200,12.06 ± 1.17,>200,187 to 188,3.77 ± 0.07,
"Clc1ccc(C2=NNC(c3cn(-c4ccccc4)nc3-c3ccc4ccccc4c3)C2)cc1Cl (stereo not shown) [Compound 3e, 5-(3,4-Dichlorophenyl)-3′-naphthalen-2-yl-1′-phenyl-3,4-dihydro-2H,1’H-[3,4′]-bipyrazole]",175.72 ± 1.41,9.63 ± 0.55,129.12 ± 0.82,195 to 196,2.53 ± 0.07,
"c1ccc(C2=NN(c3ccccc3)C(c3cn(-c4ccccc4)nc3-c3ccc4ccccc4c3)C2)cc1 (stereo not shown) [Compound 4a, 3′-Naphthalen-2-yl-2,5,1′-triphenyl-3,4-dihydro-2H,1’H-[3,4′]bipyrazole]",>200,34.39 ± 1.03,176.14 ± 1.63,187 to 188,2.53 ± 0.09,
"COc1ccc(C2=NN(c3ccccc3)C(c3cn(-c4ccccc4)nc3-c3ccc4ccccc4c3)C2)cc1 (stereo not shown) [Compound 4b, 5-(4-Methoxyphenyl)-3′-naphthalen-2-yl-2,1′-diphenyl-3,4-dihydro-2H,1’H-[3,4′] bipyrazole]",>200,21.28 ± 1.14,65.63 ± 1.46,156 to 157,4 ± 0.06,
"Cc1ccc(C2=NN(c3ccccc3)C(c3cn(-c4ccccc4)nc3-c3ccc4ccccc4c3)C2)cc1 (stereo not shown) [Compound 4c, 3′-Naphthalen-2-yl-2,1′-diphenyl-5-p-tolyl-3,4-dihydro-2H, 1’H -[3,4′]bipyrazole]",179.9 ± 1.31,24.42 ± 0.9,145.7 ± 1.42,198 to 199,1.83 ± 0.07,
"c1ccc(C2=NOC(c3cn(-c4ccccc4)nc3-c3ccc4ccccc4c3)C2)cc1 (stereo not shown) [Compound 5a, 5-(3-Naphthalen-2-yl-1-phenyl-1H-pyrazol-4-yl)-3-phenyl-4,5-dihydro-isoxazole]",37.5 ± 1.36,97.17 ± 1.4,192.37 ± 1.74,190 to 191,5.53 ± 0.07,
"Clc1ccc(C2=NOC(c3cn(-c4ccccc4)nc3-c3ccc4ccccc4c3)C2)cc1Cl (stereo not shown) [Compound 5e, 3-(3,4-Dichlorophenyl)-5-(3-naphthalen-2-yl-1-phenyl-1H-pyrazol-4-yl)-4,5-dihydro isoxazole]",96.56 ± 1.4,38.44 ± 1.28,168.77 ± 1.42,187 to 189,3 ± 0.06,
COc1ccc(C2=NN(C(N)=S)C(c3cn(-c4ccccc4)nc3-c3ccc4ccccc4c3)C2)cc1 (stereo not shown) [Compound 6b],198.08 ± 1.28,12.02 ± 0.63,>200,193 to 194,1.9 ± 0.06,
